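Results reflect a 48-hour exposure of cells in 96-well plates to compound at five concentrations. GI50 is the concentration that inhibits growth by half.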 Active and inactive are the calls of the source. Rule as the data show it: active = GI50 up to about 1.1 µM and inactive = higher.
Tests used:
Assay in all cases: NCI anticancer screen, dose series, 48 h
[1] = test system: IGROV-1
[2] = test system: UACC-257
[3] = test system: OVCAR-4
[4] = test system: SN12C
[5] = test system: Hs-578T
[6] = test system: KM12
[7] = test system: Malme-3M
[8] = test system: CCRF-CEM
[9] = test system: SF-295
[10] = test system: SNB-75
[11] = test system: ACHN
[12] = test system: A498
[13] = test system: UACC-62
[14] = test system: A549
[15] = test system: MDA-MB-435
[16] = test system: UO-31
[17] = test system: SF-268
[18] = test system: HT-29
[19] = test system: SK-MEL-5
[20] = test system: RPMI-8226
[21] = test system: HCC 2998
[22] = test system: SNB-19
[23] = test system: NCI-H522
[24] = test system: NCI/ADR-RES
[25] = test system: TK-10
[26] = test system: MOLT-4
[27] = test system: COLO 205
[28] = test system: MCF7
[29] = test system: HOP-92
[30] = test system: HOP-62
[31] = test system: MDA-MB-231
[32] = test system: OVCAR-3
[33] = test system: RXF 393
[34] = test system: EKVX
[35] = test system: NCI-H23
[36] = test system: MDA-N
[37] = test system: SR
[38] = test system: HCT-15
[39] = test system: DU-145
[40] = test system: NCI-H226
[41] = test system: SF-539
[42] = test system: CAKI-1
[43] = test system: PC-3
[44] = test system: K562
[45] = test system: T47D
[46] = test system: BT-549
[47] = test system: OVCAR-8
[48] = test system: SK-MEL-28
[49] = test system: NCI-H460
[50] = test system: HL-60
[51] = test system: SK-OV-3
[52] = test system: 786-0
[53] = test system: OVCAR-5
[54] = test system: U-251
[55] = test system: LOX IMVI
[56] = test system: SK-MEL-2
[57] = test system: SW-620
[58] = test system: HCT-116
[59] = test system: M14

## Cc1cc(=O)oc2cc(O)ccc12 [HYMECROMONE]
[1]
  GI50: > 100 µM (inactive)
[2]
  GI50: > 100 µM (inactive)
[3]
  GI50: > 100 µM (inactive)
[4]
  GI50: > 100 µM (inactive)
[5]
  GI50: > 100 µM (inactive)
[6]
  GI50: > 100 µM (inactive)
[7]
  GI50: > 100 µM (inactive)
[8]
  GI50: > 100 µM (inactive)
[9]
  GI50: > 100 µM (inactive)
[10]
  GI50: 39.1 µM (inactive)
[11]
  GI50: > 100 µM (inactive)
[12]
  GI50: 65.8 µM (inactive)
[13]
  GI50: > 100 µM (inactive)
[14]
  GI50: > 100 µM (inactive)
[15]
  GI50: > 100 µM (inactive)
[16]
  GI50: > 100 µM (inactive)
[17]
  GI50: > 100 µM (inactive)
[18]
  GI50: > 100 µM (inactive)
[19]
  GI50: > 100 µM (inactive)
[20]
  GI50: > 100 µM (inactive)
[21]
  GI50: > 100 µM (inactive)
[22]
  GI50: > 100 µM (inactive)
[23]
  GI50: > 100 µM (inactive)
[24]
  GI50: > 100 µM (inactive)
[25]
  GI50: > 100 µM (inactive)
[26]
  GI50: > 100 µM (inactive)
[27]
  GI50: > 100 µM (inactive)
[28]
  GI50: > 100 µM (inactive)
[29]
  GI50: 79.8 µM (inactive)
[30]
  GI50: > 100 µM (inactive)
[31]
  GI50: > 100 µM (inactive)
[32]
  GI50: > 100 µM (inactive)
[33]
  GI50: > 100 µM (inactive)
[34]
  GI50: > 100 µM (inactive)
[35]
  GI50: > 100 µM (inactive)
[36]
  GI50: > 100 µM (inactive)
[37]
  GI50: 69 µM (inactive)
[38]
  GI50: > 100 µM
[39]
  GI50: > 100 µM (inactive)
[40]
  GI50: > 100 µM (inactive)
[41]
  GI50: > 100 µM (inactive)
[42]
  GI50: > 100 µM (inactive)
[43]
  GI50: > 100 µM (inactive)
[44]
  GI50: > 100 µM (inactive)
[45]
  GI50: > 100 µM (inactive)
[46]
  GI50: 88.3 µM (inactive)
[47]
  GI50: > 100 µM (inactive)
[48]
  GI50: > 100 µM (inactive)
[49]
  GI50: > 100 µM (inactive)
[50]
  GI50: > 100 µM (inactive)
[51]
  GI50: > 100 µM (inactive)
[52]
  GI50: > 100 µM (inactive)
[53]
  GI50: > 100 µM (inactive)
[54]
  GI50: > 100 µM (inactive)
[55]
  GI50: > 100 µM (inactive)
[56]
  GI50: > 100 µM (inactive)
[57]
  GI50: > 100 µM (inactive)
[58]
  GI50: > 100 µM (inactive)

## CCCCCCCCCC1CC(=O)NCC(=O)NC(C(C)C)C(=O)NC(CC(C)C)C(=O)NC(C)C(=O)NC(C(C)C)C(=O)O1 (stereo unspecified)
[1]
  GI50: 31.9 µM (inactive)
[2]
  GI50: 38.8 µM (inactive)
[3]
  GI50: 4.76 µM (inactive)
[4]
  GI50: 19.1 µM (inactive)
[5]
  GI50: 18 µM (inactive)
[6]
  GI50: 6.79 µM (inactive)
[7]
  GI50: 22.6 µM (inactive)
[8]
  GI50: 15.7 µM (inactive)
[9]
  GI50: 13.3 µM (inactive)
[10]
  GI50: 12.3 µM (inactive)
[11]
  GI50: > 79.8 µM (inactive)
[12]
  GI50: 1.36 µM (inactive)
[59]
  GI50: 20.2 µM (inactive)
[13]
  GI50: 25.1 µM (inactive)
[14]
  GI50: 17.2 µM (inactive)
[15]
  GI50: 10.4 µM (inactive)
[16]
  GI50: > 100 µM (inactive)
[17]
  GI50: 4.55 µM (inactive)
[18]
  GI50: 5.9 µM (inactive)
[19]
  GI50: 17.3 µM (inactive)
[20]
  GI50: 17.1 µM (inactive)
[21]
  GI50: > 42.7 µM (inactive)
[22]
  GI50: 18.7 µM (inactive)
[23]
  GI50: 14 µM (inactive)
[24]
  GI50: > 100 µM (inactive)
[25]
  GI50: 24.3 µM (inactive)
[26]
  GI50: 13.3 µM (inactive)
[27]
  GI50: 50.4 µM (inactive)
[28]
  GI50: 17.8 µM (inactive)
[29]
  GI50: 15.5 µM (inactive)
[30]
  GI50: 22.5 µM (inactive)
[31]
  GI50: 10.2 µM (inactive)
[32]
  GI50: 9.59 µM (inactive)
[33]
  GI50: 35.3 µM (inactive)
[34]
  GI50: 21.5 µM (inactive)
[35]
  GI50: 13.6 µM (inactive)
[36]
  GI50: 17.1 µM (inactive)
[37]
  GI50: 13.3 µM (inactive)
[38]
  GI50: > 100 µM
[39]
  GI50: 21.9 µM (inactive)
[40]
  GI50: 36.6 µM (inactive)
[41]
  GI50: 19.1 µM (inactive)
[42]
  GI50: > 100 µM (inactive)
[43]
  GI50: 6.9 µM (inactive)
[44]
  GI50: 16.8 µM (inactive)
[45]
  GI50: 20.5 µM (inactive)
[46]
  GI50: 11.4 µM (inactive)
[47]
  GI50: 6.03 µM (inactive)
[48]
  GI50: 15.2 µM (inactive)
[49]
  GI50: 5.38 µM (inactive)
[50]
  GI50: 56.1 µM (inactive)
[51]
  GI50: 16.6 µM (inactive)
[52]
  GI50: 12.2 µM (inactive)
[53]
  GI50: 38.4 µM (inactive)
[54]
  GI50: 12.8 µM (inactive)
[55]
  GI50: 7.96 µM (inactive)
[56]
  GI50: 25.2 µM (inactive)
[57]
  GI50: 3.84 µM (inactive)
[58]
  GI50: 14.8 µM (inactive)

## O=C1C=C(Nc2nc(O)cc(C(=O)O)n2)c2ccccc2C1=O
[1]
  GI50: > 100 µM (inactive)
[2]
  GI50: > 100 µM (inactive)
[3]
  GI50: > 100 µM (inactive)
[4]
  GI50: > 100 µM (inactive)
[5]
  GI50: > 100 µM (inactive)
[6]
  GI50: > 100 µM (inactive)
[7]
  GI50: > 100 µM (inactive)
[8]
  GI50: > 100 µM (inactive)
[9]
  GI50: > 100 µM (inactive)
[10]
  GI50: > 100 µM (inactive)
[11]
  GI50: > 100 µM (inactive)
[12]
  GI50: > 100 µM (inactive)
[59]
  GI50: > 100 µM (inactive)
[13]
  GI50: > 100 µM (inactive)
[14]
  GI50: > 100 µM (inactive)
[15]
  GI50: 37.8 µM (inactive)
[16]
  GI50: > 100 µM (inactive)
[17]
  GI50: > 100 µM (inactive)
[18]
  GI50: > 100 µM (inactive)
[19]
  GI50: > 100 µM (inactive)
[20]
  GI50: > 100 µM (inactive)
[21]
  GI50: > 100 µM (inactive)
[22]
  GI50: > 100 µM (inactive)
[23]
  GI50: > 100 µM (inactive)
[24]
  GI50: > 100 µM (inactive)
[25]
  GI50: > 100 µM (inactive)
[26]
  GI50: > 100 µM (inactive)
[27]
  GI50: > 100 µM (inactive)
[28]
  GI50: > 100 µM (inactive)
[29]
  GI50: > 100 µM (inactive)
[30]
  GI50: > 100 µM (inactive)
[31]
  GI50: > 100 µM (inactive)
[32]
  GI50: > 100 µM (inactive)
[33]
  GI50: > 100 µM (inactive)
[34]
  GI50: > 100 µM (inactive)
[35]
  GI50: > 100 µM (inactive)
[36]
  GI50: > 100 µM (inactive)
[37]
  GI50: > 100 µM (inactive)
[38]
  GI50: > 100 µM
[39]
  GI50: > 100 µM (inactive)
[40]
  GI50: > 100 µM (inactive)
[41]
  GI50: > 100 µM (inactive)
[42]
  GI50: > 100 µM (inactive)
[43]
  GI50: > 100 µM (inactive)
[44]
  GI50: > 100 µM (inactive)
[45]
  GI50: > 100 µM (inactive)
[46]
  GI50: > 100 µM (inactive)
[47]
  GI50: > 100 µM (inactive)
[48]
  GI50: > 100 µM (inactive)
[49]
  GI50: > 100 µM (inactive)
[50]
  GI50: > 100 µM (inactive)
[51]
  GI50: > 100 µM (inactive)
[52]
  GI50: > 100 µM (inactive)
[53]
  GI50: > 100 µM (inactive)
[54]
  GI50: > 100 µM (inactive)
[55]
  GI50: > 100 µM (inactive)
[56]
  GI50: > 100 µM (inactive)
[57]
  GI50: > 100 µM (inactive)
[58]
  GI50: > 100 µM (inactive)

Reference: ChEMBL document CHEMBL1201862, “PubChem BioAssay data set” (2004)
